{
  "source": "patent US10294202B2",
  "about": "“Pyrrolidinones as herbicides” (FMC Corporation, priority 2013, dated 2019)",
  "key": {"wild poinsettia": {"test_system": "wild poinsettia", "test": "Test E preemergence herbicide test", "type": "in vivo, Euphorbia heterophylla", "parameters": "key: 0 = no effect, 100 = complete control", "text": "(§1) Seeds of plant species selected from corn (Zea mays), soybean (Glycine max), velvetleaf (Abutilon theophrasti), lambsquarters (Chenopodium album), wild poinsettia (Euphorbia heterophylla), pigweed, palmer (palmer pigweed, Amaranthus palmeri), waterhemp (common waterhemp, Amaranthus rudis), surinam grass (Brachiaria decumbens), crabgrass, large (large crabgrass, Digitaria sanguinalis), crabgrass, Brazil (Brazilian crabgrass, Digitaria horizontalis), panicum, fall (fall panicum, Panicum dichotomiflorum), foxtail, giant (giant foxtail, Setaria faberii), foxtail, green (green foxtail, Setaria viridis), goosegrass (Eleusine indica), johnsongrass (Sorghum halepense), ragweed (common ragweed, Ambrosia elatior), barnyardgrass (Echinochloa crus-galli), sandbur (southern sandbur, Cenchrus echinatus), arrowleaf […] rhombifolia), ryegrass, Italian (Italian ryegrass, Lolium multiflorum), dayflower, VA (Virginia dayflower, Commelina virginica), field bindweed (Convolvulus arvensis), morningglory (Ipomoea coccinea), nightshade (eastern black nightshade, Solanum ptycanthum), kochia (Kochia scoparia), nutsedge, yellow (yellow nutsedge, Cyperus esculentus), cocklebur (common cocklebur, Xanthium strumarium), smartweed (ladysthumb smartweed, Polygonum Persicaria) and beggarticks (hairy beggarticks, Bidens pilosa), were planted into a silt loam soil and treated preemergence with test chemicals formulated in a non-phytotoxic solvent mixture which included a surfactant. Treated plants and controls were maintained in a greenhouse for 21 days, after which time all species were compared to controls and visually evaluated. Plant response ratings, summarized in Table E, are based on a scale of 0 to 100 where 0 is no effect and 100 is complete control. A dash (-) response means no test result."}, "nightshade": {"test_system": "nightshade", "test": "Test E preemergence herbicide test", "type": "in vivo, Solanum ptycanthum", "parameters": "key: 0 = no effect, 100 = complete control", "procedure,_shortened": "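Greenhouse preemergence test: seeds sown into silt loam received compound in a non-phytotoxic solvent mixture with surfactant. Plants grew 21 days before visual comparison with controls. Scores run from 0, no effect, to 100, complete control.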"}, "bromegrass, downy": {"test_system": "bromegrass, downy", "test": "Test C pre-/postemergence herbicide test", "type": "in vivo, Bromus tectorum", "procedure,_shortened": "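Test compounds, formulated in a surfactant-containing non-phytotoxic solvent blend, are applied to seeded loam/sand soil (preemergence) and to young plants at the 1- to 4-leaf stage in peat-based medium (postemergence). Plants stay 13 to 15 days under greenhouse conditions, then are scored visually relative to controls, 0 = no effect, 100 = complete control.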"}, "dayflower, VA": {"test_system": "dayflower, VA", "test": "Test E preemergence herbicide test", "type": "in vivo, Commelina virginica", "parameters": "key: 0 = no effect, 100 = complete control", "text": "as §1"}, "oilseed rape": {"test_system": "oilseed rape", "test": "Test D pre-/postemergence herbicide test", "type": "in vivo, Brassica napus", "details": "Postemergence, Oilseed Rape, scale 0 to 100", "procedure,_shortened": "(§2)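 Seeds sown in silt loam were sprayed preemergence with test chemicals in a non-phytotoxic solvent mixture with surfactant. Postemergence plants grown in peat/vermiculite medium were treated at 2–18 cm (1- to 4-leaf stage). After 7 to 21 days in a controlled environment, injury was rated visually versus controls, 0 (no effect) to 100 (complete control).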"}, "Russian thistle": {"test_system": "Russian thistle", "test": "Test D pre-/postemergence herbicide test", "type": "in vivo, Salsola kali", "details": "Postemergence, Russian Thistle, scale 0 to 100", "procedure,_shortened": "as §2"}},
  "data": [
    {"smiles": "O=C1NCC(c2ccc(F)c(F)c2)C1C(=O)Nc1cccc(F)c1F", "note": "(centres unmarked) [Compound 17, N-(2,3-difluorophenyl)-4-(3,4-difluorophenyl)-2-oxo-3-pyrrolidinecarboxamide]", "values": [
      {"measurement": "Plant response rating, Poinsettia, Wild", "setting": "wild poinsettia; 16 g ai/ha", "result": 0},
      {"measurement": "Plant response rating, Poinsettia, Wild", "setting": "wild poinsettia; 31 g ai/ha", "result": 0},
      {"measurement": "Plant response rating, Poinsettia, Wild", "setting": "wild poinsettia; 62 g ai/ha", "result": 0},
      {"measurement": "Plant response rating, Poinsettia, Wild", "setting": "wild poinsettia; 125 g ai/ha", "result": 0},
      {"measurement": "Plant response rating, Poinsettia, Wild", "setting": "wild poinsettia; 250 g ai/ha", "result": 20},
      {"measurement": "Plant response rating, Nightshade", "setting": "nightshade; 16 g ai/ha", "result": 0},
      {"measurement": "Plant response rating, Nightshade", "setting": "nightshade; 62 g ai/ha", "result": 0},
      {"measurement": "Plant response rating, Nightshade", "setting": "nightshade; 125 g ai/ha", "result": 0},
      {"measurement": "Plant response rating, Nightshade", "setting": "nightshade; 250 g ai/ha", "result": 0},
      {"measurement": "Plant response rating, Bromegrass, Downy", "setting": "bromegrass, downy; Postemergence, 31 g ai/ha, scale 0 (no effect) to 100 (complete control)", "result": 0},
      {"measurement": "Plant response rating, Bromegrass, Downy", "setting": "bromegrass, downy; Postemergence, 62 g ai/ha, scale 0 to 100 (0 no effect, 100 complete control)", "result": 0},
      {"measurement": "Plant response rating, Bromegrass, Downy", "setting": "bromegrass, downy; Postemergence, 125 g ai/ha, scale 0 to 100 (0 no effect, 100 complete control)", "result": 0},
      {"measurement": "Plant response rating, Bromegrass, Downy", "setting": "bromegrass, downy; Postemergence, 250 g ai/ha, scale 0 to 100 (0 no effect, 100 complete control)", "result": 0},
      {"measurement": "Plant response rating, Bromegrass, Downy", "setting": "bromegrass, downy; Preemergence, 62 g ai/ha, scale 0 to 100", "result": 30},
      {"measurement": "Plant response rating, Bromegrass, Downy", "setting": "bromegrass, downy; Preemergence, 125 g ai/ha, scale 0 to 100 (0 no effect, 100 complete control)", "result": 45},
      {"measurement": "Bromegrass, Downy plant response rating", "setting": "bromegrass, downy; Preemergence, 31 g ai/ha, scale 0 to 100 (0 no effect, 100 complete control)", "result": 0},
      {"measurement": "Plant response rating, Bromegrass, Downy", "setting": "bromegrass, downy; Preemergence, 250 g ai/ha, scale 0 to 100 (0 no effect, 100 complete control)", "result": 65},
      {"measurement": "Plant response rating, Dayflower, VA", "setting": "dayflower, VA; 16 g ai/ha", "result": 0},
      {"measurement": "Plant response rating, Dayflower, VA", "setting": "dayflower, VA; 31 g ai/ha", "result": 0},
      {"measurement": "Plant response rating, Dayflower, VA", "setting": "dayflower, VA; 62 g ai/ha", "result": 0},
      {"measurement": "Plant response rating, Dayflower, VA", "setting": "dayflower, VA; 125 g ai/ha", "result": 0},
      {"measurement": "Plant response rating, Dayflower, VA", "setting": "dayflower, VA; 250 g ai/ha", "result": 0},
      {"measurement": "Plant response rating", "setting": "oilseed rape; 16 g ai/ha", "result": 0},
      {"measurement": "Plant response rating", "setting": "oilseed rape; 31 g ai/ha", "result": 0},
      {"measurement": "Plant response rating", "setting": "oilseed rape; 62 g ai/ha", "result": 10},
      {"measurement": "Plant response rating", "setting": "oilseed rape; 125 g ai/ha", "result": 20},
      {"measurement": "Plant response rating", "setting": "oilseed rape; 250 g ai/ha", "result": 40},
      {"measurement": "Plant response rating", "setting": "Russian thistle; 16 g ai/ha", "result": 0},
      {"measurement": "Plant response rating", "setting": "Russian thistle; 31 g ai/ha", "result": 0},
      {"measurement": "Plant response rating", "setting": "Russian thistle; 62 g ai/ha", "result": 0},
      {"measurement": "Plant response rating", "setting": "Russian thistle; 125 g ai/ha", "result": 20},
      {"measurement": "Plant response rating", "setting": "Russian thistle; 250 g ai/ha", "result": 40}
    ]}
  ]
}
